pEC50, pIC50: −log10 of the molar value.

One assay has as its system HepG2 cells. The assay can be described thus: Cancer cell viability assay (CellTiter-Glo 2.0), HepG2. It counts as cell-based, Human. The conditions noted are these: HepG2, 72 hours compound treatment. The method, then:
(§1) Human liver cancer cell lines HepG2, Hep3B, Huh7, and SK-HEP-1 cells were rinsed and trypsinized with 0.25% trypsin (Corning #25-053-CI) in an incubator at 37° C. until detached. The cells were resuspended and seeded in 96-well plates to a density of 5,000 cells per well. Following cell adhesion, compounds were added to a final concentration of 2× dilution. 72 hours following compound treatment, CellTiter-Glo® 2.0 was added to the well in a 2:1 ratio of media/CellTiter-Glo® 2.0. The plates were shielded from light, shaken for 2 minutes, and incubated for 10 minutes. Luminescence was measured on a microplate reader and EC50 values were calculated using Prism 9 software.

Another assay concerns the target CDK9/CyclinT (Homo sapiens (Human), UniProt P50750). The assay can be described thus: CDK9 biochemical assay (Kinase-Glo Max luminescence). The conditions noted are these: 30° C. for 45 minutes. The method, then: To each well of a 96-well plate was added 5× kinase assay buffer with 10 mM DTT (6 μL), 500 μM ATP (1 μL), 5×CDK substrate (10 μL), and water (8 μL). 5 μL of compound were added to the test and positive control groups, while 5 μL of solvent was added to the blank groups. 100 ng of CDK9/CyclinT in 20 μL water was added to the test and positive control groups, while 20 μL of 1× kinase assay buffer was added to the blank groups. The reaction mixtures were incubated at 30° C. for 45 minutes, and 50 μL of Kinase-Glo® Max was added to each well and the plates were shielded from light and incubated for 15 minutes at room temperature. Luminescence was measured on a microplate reader and IC50 values were calculated using Prism 9 software.

The test system of another assay is Hep3B cells. The assay can be described thus: Cancer cell viability assay (CellTiter-Glo 2.0), Hep3B. Type of assay: cell-based, Human. Conditions: 72 hours compound treatment. The method, then: as §1

CDK9/CyclinT, sequence (P50750 whole entry): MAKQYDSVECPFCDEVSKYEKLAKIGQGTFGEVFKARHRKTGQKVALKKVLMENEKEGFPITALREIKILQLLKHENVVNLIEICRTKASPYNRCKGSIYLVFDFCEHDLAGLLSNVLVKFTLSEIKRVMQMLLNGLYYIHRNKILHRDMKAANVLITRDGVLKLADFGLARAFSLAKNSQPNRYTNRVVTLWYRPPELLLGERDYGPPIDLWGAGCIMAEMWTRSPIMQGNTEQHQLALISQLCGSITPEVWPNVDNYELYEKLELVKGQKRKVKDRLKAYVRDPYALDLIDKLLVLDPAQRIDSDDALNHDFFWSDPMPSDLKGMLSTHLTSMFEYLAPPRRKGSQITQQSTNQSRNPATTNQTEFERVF
CDK9/CyclinT, sequence (O60563 whole entry partner): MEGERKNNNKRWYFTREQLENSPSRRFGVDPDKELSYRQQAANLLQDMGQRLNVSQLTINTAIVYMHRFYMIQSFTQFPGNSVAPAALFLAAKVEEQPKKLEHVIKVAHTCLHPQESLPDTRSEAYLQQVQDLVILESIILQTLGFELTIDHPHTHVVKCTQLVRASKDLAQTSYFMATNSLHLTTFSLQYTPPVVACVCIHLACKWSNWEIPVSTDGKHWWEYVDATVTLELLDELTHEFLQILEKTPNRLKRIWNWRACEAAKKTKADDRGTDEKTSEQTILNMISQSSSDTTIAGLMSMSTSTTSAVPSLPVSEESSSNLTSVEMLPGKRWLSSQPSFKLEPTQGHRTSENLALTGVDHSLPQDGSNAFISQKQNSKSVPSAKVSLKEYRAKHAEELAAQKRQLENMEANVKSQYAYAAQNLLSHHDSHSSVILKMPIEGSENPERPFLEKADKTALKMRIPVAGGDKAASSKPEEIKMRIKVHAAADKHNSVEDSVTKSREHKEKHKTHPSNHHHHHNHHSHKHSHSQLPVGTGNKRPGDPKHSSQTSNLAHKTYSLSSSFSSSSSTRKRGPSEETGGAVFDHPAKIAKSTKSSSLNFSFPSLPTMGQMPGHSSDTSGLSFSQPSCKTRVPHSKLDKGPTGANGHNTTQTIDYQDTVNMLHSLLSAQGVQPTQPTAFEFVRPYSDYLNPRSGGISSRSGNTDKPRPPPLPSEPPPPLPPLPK

`C[C@H](Cc1nnn[nH]1)NC1CCC(Nc2cc(-c3cccc(NCC4(C#N)CCOCC4)n3)c(Cl)cn2)CC1` (stereo partly drawn) [Compound 12, 4-(((2′-(((1R,4R)-4-(((R)-1-(1H-tetrazol-5-yl)propan-2-yl)amino)cyclohexyl)amino)-5′-chloro-[2,4′-bipyridin]-6-yl)amino)methyl)tetrahydro-2H-pyran-4-carbonitrile] showed a pEC50 in the assay on HepG2 cells of under 6.00. For the same compound, the pIC50 against CDK9/CyclinT was under 8.00.

`C[C@@H](Cc1nnn[nH]1)NC1CCC(Nc2cc(-c3cccc(NCC4(C#N)CCOCC4)n3)c(Cl)cn2)CC1` (stereo partly drawn) [Compound 13, 4-(((2′-(((1S,4R)-4-(((S)-1-(1H-tetrazol-5-yl)propan-2-yl)amino)cyclohexyl)amino)-5′-chloro-[2,4′-bipyridin]-6-yl)amino)methyl)tetrahydro-2H-pyran-4-carbonitrile] had a pEC50 in the assay with HepG2 cells of under 6.00. Further, the pIC50 at CDK9/CyclinT is under 8.00.

In the case of `CCOC(=O)O[C@H](C)n1nnc(COC[C@@H](C)N[C@H]2CC[C@H](Nc3cc(-c4cccc(NCC5(C#N)CCOCC5)n4)c(Cl)cn3)CC2)n1` [Compound 21, (R)-1-(5-(((R)-2-(((1r,4R)-4-((5′-chloro-6-(((4-cyanotetrahydro-2H-pyran-4-yl)methyl)amino)-[2,4′-bipyridin]-2′-yl)amino)cyclohexyl)amino)propoxy)methyl)-2H-tetrazol-2-yl)ethyl ethyl carbonate], the results for the pEC50 in the assay with HepG2 cells and in the assay on Hep3B cells were under 6.00 and 6.00 to 6.30, respectively. The compound further had a pIC50 on CDK9/CyclinT of over 8.60.

As for `CCOC(=O)O[C@H](C)n1nnc(COC[C@H](C)N[C@H]2CC[C@H](Nc3cc(-c4cccc(NCC5(C#N)CCOCC5)n4)c(Cl)cn3)CC2)n1` [Compound 22, (R)-1-(5-(((S)-2-(((1r,4S)-4-((5′-chloro-6-(((4-cyanotetrahydro-2H-pyran-4-yl)methyl)amino)-[2,4′-bipyridin]-2′-yl)amino)cyclohexyl)amino)propoxy)methyl)-2H-tetrazol-2-yl)ethyl ethyl carbonate], the pEC50 with HepG2 cells was under 6.00; in the assay with Hep3B cells, 6.00 to 6.30. The negative-log IC50 (pIC50) against CDK9/CyclinT is 8.30 to 8.60.

Regarding `CCOC(=O)O[C@@H](C)n1nnc(COC[C@@H](C)N[C@H]2CC[C@H](Nc3cc(-c4cccc(NCC5(C#N)CCOCC5)n4)c(Cl)cn3)CC2)n1` [Compound 24, (S)-1-(5-(((R)-2-(((1r,4R)-4-((5′-chloro-6-(((4-cyanotetrahydro-2H-pyran-4-yl)methyl)amino)-[2,4′-bipyridin]-2′-yl)amino)cyclohexyl)amino)propoxy)methyl)-2H-tetrazol-2-yl)ethyl ethyl carbonate], the pEC50 in the assay with HepG2 cells and with Hep3B cells was under 6.00 each time. Besides, at CDK9/CyclinT, the pIC50 is under 8.00.

Turning to `CCOC(=O)O[C@@H](C)n1nnc(COC[C@H](C)N[C@H]2CC[C@H](Nc3cc(-c4cccc(NCC5(C#N)CCOCC5)n4)c(Cl)cn3)CC2)n1` [Compound 25, (S)-1-(5-(((S)-2-(((1r,4S)-4-((5′-chloro-6-(((4-cyanotetrahydro-2H-pyran-4-yl)methyl)amino)-[2,4′-bipyridin]-2′-yl)amino)cyclohexyl)amino)propoxy)methyl)-2H-tetrazol-2-yl)ethyl ethyl carbonate], the pEC50 in the assay on HepG2 cells and with Hep3B cells was under 6.00 in each case. This compound showed a pIC50 against CDK9/CyclinT of under 8.00.

On to `CCOC(=O)O[C@H](C)n1nnnc1COC[C@@H](C)N[C@H]1CC[C@H](Nc2cc(-c3cccc(NCC4(C#N)CCOCC4)n3)c(Cl)cn2)CC1` [Compound 27, (R)-1-(5-(((R)-2-(((1r,4R)-4-((5′-chloro-6-(((4-cyanotetrahydro-2H-pyran-4-yl)methyl)amino)-[2,4′-bipyridin]-2′-yl)amino)cyclohexyl)amino)propoxy)methyl)-1H-tetrazol-1-yl)ethyl ethyl carbonate], for which the pEC50 with HepG2 cells and in the assay with Hep3B cells was under 6.00 throughout. On CDK9/CyclinT, this compound gave a pIC50 of over 8.60.

As to `CCOC(=O)O[C@H](C)n1nnnc1COC[C@H](C)N[C@H]1CC[C@H](Nc2cc(-c3cccc(NCC4(C#N)CCOCC4)n3)c(Cl)cn2)CC1` [Compound 28, (R)-1-(5-(((S)-2-(((1r,4S)-4-((5′-chloro-6-(((4-cyanotetrahydro-2H-pyran-4-yl)methyl)amino)-[2,4′-bipyridin]-2′-yl)amino)cyclohexyl)amino)propoxy)methyl)-1H-tetrazol-1-yl)ethyl ethyl carbonate], the pEC50 with HepG2 cells and in the assay on Hep3B cells was under 6.00 in each case. Moreover, the pIC50 against CDK9/CyclinT was under 8.00.

On to `CCOC(=O)O[C@@H](C)n1nnnc1COC[C@@H](C)N[C@H]1CC[C@H](Nc2cc(-c3cccc(NCC4(C#N)CCOCC4)n3)c(Cl)cn2)CC1` [Compound 30, (S)-1-(5-(((R)-2-(((1r,4R)-4-((5′-chloro-6-(((4-cyanotetrahydro-2H-pyran-4-yl)methyl)amino)-[2,4′-bipyridin]-2′-yl)amino)cyclohexyl)amino)propoxy)methyl)-1H-tetrazol-1-yl)ethyl ethyl carbonate], for which the negative logarithm of the EC50 (pEC50) was 6.00 to 6.30 in the assay with HepG2 cells and under 6.00 in the assay on Hep3B cells. The compound further gave a pIC50 against CDK9/CyclinT of over 8.60.

Consider `CCOC(=O)O[C@@H](C)n1nnnc1COC[C@H](C)N[C@H]1CC[C@H](Nc2cc(-c3cccc(NCC4(C#N)CCOCC4)n3)c(Cl)cn2)CC1` [Compound 31, (S)-1-(5-(((S)-2-(((1r,4S)-4-((5′-chloro-6-(((4-cyanotetrahydro-2H-pyran-4-yl)methyl)amino)-[2,4′-bipyridin]-2′-yl)amino)cyclohexyl)amino)propoxy)methyl)-1H-tetrazol-1-yl)ethyl ethyl carbonate], for which the negative-log EC50 (pEC50) in the assay with HepG2 cells and in the assay with Hep3B cells was under 6.00 in each case. Also, the pIC50 at CDK9/CyclinT is over 8.60.

In the case of `C[C@@H](COCc1nnn(C)n1)N[C@H]1CC[C@H](Nc2cc(-c3cccc(NCC4(C#N)CCOCC4)n3)c(Cl)cn2)CC1` [Compound 34, 4-(((5′-chloro-2′-(((1S,4r)-4-(((S)-1-((2-methyl-2H-tetrazol-5-yl)methoxy)propan-2-yl)amino)cyclohexyl)amino)-[2,4′-bipyridin]-6-yl)amino)methyl)tetrahydro-2H-pyran-4-carbonitrile], the pEC50 with HepG2 cells is over 7.00; in the assay with Hep3B cells, 6.30 to 7.00. Besides, the pIC50 against CDK9/CyclinT is under 8.00.

`C[C@H](COCc1nnnn1C)N[C@H]1CC[C@H](Nc2cc(-c3cccc(NCC4(C#N)CCOCC4)n3)c(Cl)cn2)CC1` [Compound 36, 4-(((5′-chloro-2′-(((1R,4r)-4-(((R)-1-((1-methyl-1H-tetrazol-5-yl)methoxy)propan-2-yl)amino)cyclohexyl)amino)-[2,4′-bipyridin]-6-yl)amino)methyl)tetrahydro-2H-pyran-4-carbonitrile]: the results for the pEC50 in the assay on HepG2 cells and in the assay on Hep3B cells were 6.30 to 7.00 and 6.00 to 6.30, respectively. For the same compound, on CDK9/CyclinT, the pIC50 was over 8.60.

As for `C[C@@H](COCc1nnnn1C)N[C@H]1CC[C@H](Nc2cc(-c3cccc(NCC4(C#N)CCOCC4)n3)c(Cl)cn2)CC1` [Compound 37, 4-(((5′-chloro-2′-(((1S,4r)-4-(((S)-1-((1-methyl-1H-tetrazol-5-yl)methoxy)propan-2-yl)amino)cyclohexyl)amino)-[2,4′-bipyridin]-6-yl)amino)methyl)tetrahydro-2H-pyran-4-carbonitrile], the negative-log EC50 (pEC50) with HepG2 cells and in the assay with Hep3B cells was 6.30 to 7.00 in each case. The pIC50 against CDK9/CyclinT was over 8.60.

For `COC[C@@H](C)NC1CCC(Nc2cc(-c3cccc(NCC4(C#N)CCOCC4)n3)c(Cl)cn2)CC1` (some centres unmarked) [NVP-2, reference compound], on CDK9/CyclinT, the pIC50 was 8.30 to 8.60.
